Results as given in US7265129B2, “Anti-infective biaryl compounds” (priority 2002, dated 2007).

Assays:
B. cereus ATCC 11778 = experiment: MIC, NCCLS broth microdilution, B. cereus; type: cell-based, Bacillus cereus
Source text: (§1) It vitro biological activity data were collected for a variety of microorganisms, including Bacillus cereus (ATCC 11778), Staphylococcus aureus (ATCC 33591; ATCC 27660, a methicillin resistant strain (MRSA); ATCC 13709, a methicillin sensitive strain (MSSA)), Enterococcus faecalis (ATCC 29212), and Streptococcus pneumoniae (ATCC 49619). Additionally, antifungal activity data were collected for Candida albicans (ATCC 38247).
(§2) Compounds according to this invention were screened for their in vitro activities against selected species of bacteria and fungi. The minimal inhibition concentration (MIC) of these compounds was determined using the National Committee for Clinical Laboratory Standards (NCCLS) broth microdilution assay in microtiter plates, as set forth in: (1) the guidelines of the National Committee for Clinical Laboratory Standards (NCCLS) Document M7-A4 (NCCLS, 1997); (2) the guidelines of the National Committee for Clinical Laboratory Standards (NCCLS) Document M11-A4 (NCCLS, 1997); and (3) the guidelines and reference method of the National Committee for Clinical Laboratory Standards (NCCLS) Document M27-T (NCCLS, 1995). For antifungal assays, the method recommended in Murray, P R., 1995 Manual of Clinical Microbiology (ASM Press, Washington, D.C.), was employed.

C. albicans ATCC 38247 = experiment: MIC, antifungal assay, C. albicans; type: cell-based, Candida albicans
Source text: as §1, §2

E. faecalis ATCC 29212 = experiment: MIC, NCCLS broth microdilution, E. faecalis; type: cell-based, Enterococcus faecalis
Source text: as §1, §2

S. aureus ATCC 13709 = experiment: MIC, NCCLS broth microdilution, S. aureus MSSA; type: cell-based, Staphylococcus aureus; settings: S. aureus ATCC 13709, methicillin sensitive strain (MSSA)
Source text: as §1, §2

S. aureus ATCC 27660 = experiment: MIC, NCCLS broth microdilution, S. aureus MRSA; type: cell-based, Staphylococcus aureus; settings: S. aureus ATCC 27660, methicillin resistant strain (MRSA)
Source text: as §1, §2

S. aureus ATCC 33591 = experiment: MIC, NCCLS broth microdilution, S. aureus ATCC 33591; type: cell-based, Staphylococcus aureus
Source text: as §1, §2

S. pneumoniae ATCC 49619 = experiment: MIC, NCCLS broth microdilution, S. pneumoniae; type: cell-based, Streptococcus pneumoniae
Source text: as §1, §2

SMILES	Minimum Inhibitory Concentration (MIC), organism A (B. cereus ATCC 11778)	Minimum Inhibitory Concentration (MIC), organism B (C. albicans ATCC 38247)	Minimum Inhibitory Concentration (MIC), organism C (E. faecalis ATCC 29212)	Minimum Inhibitory Concentration (MIC), organism D (S. aureus ATCC 13709)	Minimum Inhibitory Concentration (MIC), organism E (S. aureus ATCC 27660)	Minimum Inhibitory Concentration (MIC), organism F (S. aureus ATCC 33591)	Minimum Inhibitory Concentration (MIC), organism G (S. pneumoniae ATCC 49619)
Cn1cc(NC(=O)c2cc(NC(=O)c3sc4ccccc4c3Cl)cn2CCCN2CCC(F)(F)CC2)cc1-c1nc2ccccc2[nH]1 [Compound A-25]	>32 µg/mL	>32 µg/mL	+ (12 ≦ MIC ≦ 32 μg/mL)	+ (12 ≦ MIC ≦ 32 μg/mL)	+ (12 ≦ MIC ≦ 32 μg/mL)	+ (12 ≦ MIC ≦ 32 μg/mL)	++ (4 < MIC < 12 μg/mL)
Cn1cc(NC(=O)c2cc3ccccc3cn2)cc1C(=O)Nc1cc(-c2nc3ccc(N)cc3[nH]2)n(C)c1 [Compound A-8]	++ (4 < MIC < 12 μg/mL)	>32 µg/mL	+++ (MIC ≦ 4 μg/mL)	+++ (MIC ≦ 4 μg/mL)	+++ (MIC ≦ 4 μg/mL)	+++ (MIC ≦ 4 μg/mL)	+++ (MIC ≦ 4 μg/mL)
CN(C)CCCn1cc(NC(=O)c2ccc(F)cc2F)cc1C(=O)Nc1cc(-c2nc3ncccc3[nH]2)n(C)c1 [Compound A-17]	+++ (MIC ≦ 4 μg/mL)	>32 µg/mL	+++ (MIC ≦ 4 μg/mL)	+++ (MIC ≦ 4 μg/mL)	+++ (MIC ≦ 4 μg/mL)	+++ (MIC ≦ 4 μg/mL)	+++ (MIC ≦ 4 μg/mL)
CN(C)CCCn1cc(NC(=O)c2cc3ccccc3cn2)cc1C(=O)Nc1cc(-c2nc3ccncc3[nH]2)n(C)c1 [Compound A-13]	+++ (MIC ≦ 4 μg/mL)	>32 µg/mL	+++ (MIC ≦ 4 μg/mL)	+++ (MIC ≦ 4 μg/mL)	+++ (MIC ≦ 4 μg/mL)	+++ (MIC ≦ 4 μg/mL)	+++ (MIC ≦ 4 μg/mL)
CC1CCN(CCCn2cc(NC(=O)c3ccc(Cl)cc3F)cc2C(=O)Nc2cc(-c3nc4cccnc4[nH]3)n(C)c2)CC1 [Compound A-41]	+++ (MIC ≦ 4 μg/mL)	>32 µg/mL	+++ (MIC ≦ 4 μg/mL)	+++ (MIC ≦ 4 μg/mL)	+++ (MIC ≦ 4 μg/mL)	+++ (MIC ≦ 4 μg/mL)	+++ (MIC ≦ 4 μg/mL)
Cn1cc(NC(=O)c2cc(NC(=O)c3ccc(Cl)cc3F)cn2CCCN2CCC(F)(F)CC2)cc1-c1nc2ccccc2[nH]1 [Compound A-35]	+++ (MIC ≦ 4 μg/mL)	>32 µg/mL	+++ (MIC ≦ 4 μg/mL)	+++ (MIC ≦ 4 μg/mL)	+++ (MIC ≦ 4 μg/mL)	+++ (MIC ≦ 4 μg/mL)	+++ (MIC ≦ 4 μg/mL)
Cn1cc(NC(=O)c2cc(NC(=O)c3ccc(Cl)cc3F)cn2CCCN2CCC(O)CC2)cc1-c1nc2cccnc2[nH]1 [Compound A-42]	+++ (MIC ≦ 4 μg/mL)	+ (12 ≦ MIC ≦ 32 μg/mL)	+++ (MIC ≦ 4 μg/mL)	+++ (MIC ≦ 4 μg/mL)	+++ (MIC ≦ 4 μg/mL)	+++ (MIC ≦ 4 μg/mL)	+++ (MIC ≦ 4 μg/mL)
CN(C)CCCn1cc(NC(=O)c2cc3ccccc3cn2)cc1C(=O)Nc1cc(-c2nc3ncncc3[nH]2)n(C)c1 [Compound A-15]	+ (12 ≦ MIC ≦ 32 μg/mL)	>32 µg/mL	++ (4 < MIC < 12 μg/mL)	+ (12 ≦ MIC ≦ 32 μg/mL)	+ (12 ≦ MIC ≦ 32 μg/mL)	+ (12 ≦ MIC ≦ 32 μg/mL)	+++ (MIC ≦ 4 μg/mL)
CN(C)CCCn1cc(NC(=O)c2sccc2Cl)cc1C(=O)Nc1cc(-c2nc3ncncc3[nH]2)n(C)c1 [Compound A-63]	>32 µg/mL	>32 µg/mL	+ (12 ≦ MIC ≦ 32 μg/mL)	+ (12 ≦ MIC ≦ 32 μg/mL)	+ (12 ≦ MIC ≦ 32 μg/mL)	+ (12 ≦ MIC ≦ 32 μg/mL)	+++ (MIC ≦ 4 μg/mL)
Cn1cc(NC(=O)c2cc(NC(=O)c3sccc3Cl)cn2CCC[n+]2ccccc2)cc1-c1nc2ccccc2[nH]1 [Compound A-56]	>32 µg/mL	>32 µg/mL	>32 µg/mL	+ (12 ≦ MIC ≦ 32 μg/mL)	+ (12 ≦ MIC ≦ 32 μg/mL)	+ (12 ≦ MIC ≦ 32 μg/mL)	>32 µg/mL
COc1cc(F)ccc1C(=O)Nc1cc(C(=O)Nc2cc(-c3nc4ccccc4[nH]3)n(C)c2)n(CCCN(C)C)c1 [Compound A-20]	+++ (MIC ≦ 4 μg/mL)	+ (12 ≦ MIC ≦ 32 μg/mL)	+++ (MIC ≦ 4 μg/mL)	+++ (MIC ≦ 4 μg/mL)	+++ (MIC ≦ 4 μg/mL)	–	+++ (MIC ≦ 4 μg/mL)
COc1cc(Cl)ccc1C(=O)Nc1cc(C(=O)Nc2cc(-c3nc4ccccc4[nH]3)n(C)c2)n(CCCN(C)C)c1 [Compound A-21]	+++ (MIC ≦ 4 μg/mL)	+ (12 ≦ MIC ≦ 32 μg/mL)	+++ (MIC ≦ 4 μg/mL)	++ (4 < MIC < 12 μg/mL)	+++ (MIC ≦ 4 μg/mL)	–	+++ (MIC ≦ 4 μg/mL)
CN(C)CCCn1cc(NC(=O)c2sc3ccccc3c2Cl)cc1C(=O)Nc1cc(-c2nc3ccccc3[nH]2)n(C)c1 [Compound A-22]	+++ (MIC ≦ 4 μg/mL)	+ (12 ≦ MIC ≦ 32 μg/mL)	++ (4 < MIC < 12 μg/mL)	++ (4 < MIC < 12 μg/mL)	++ (4 < MIC < 12 μg/mL)	–	++ (4 < MIC < 12 μg/mL)
